± gives the expanded uncertainty stated by the source.
Conditions: 298.15 K; 101.33 kPa; Liquid; Vibrating tube method

mass density [kg/m3] | SMILES
873.45 ± 0.11 | c1ccccc1 [benzene]
873.38 ± 0.3 | CCCCCCCl [1-chlorohexane]

SMILES | mass density [kg/m3]
Clc1cccc(Cl)c1 [1,3-dichlorobenzene] | 1282.87 ± 0.61

Reference: the NIST ThermoML archive (doi:10.1016/j.jct.2013.12.024)
